Target: T1, SOS1 protein (Homo sapiens, UniProt Q07889)
T1 sequence (Q07889 1-1333): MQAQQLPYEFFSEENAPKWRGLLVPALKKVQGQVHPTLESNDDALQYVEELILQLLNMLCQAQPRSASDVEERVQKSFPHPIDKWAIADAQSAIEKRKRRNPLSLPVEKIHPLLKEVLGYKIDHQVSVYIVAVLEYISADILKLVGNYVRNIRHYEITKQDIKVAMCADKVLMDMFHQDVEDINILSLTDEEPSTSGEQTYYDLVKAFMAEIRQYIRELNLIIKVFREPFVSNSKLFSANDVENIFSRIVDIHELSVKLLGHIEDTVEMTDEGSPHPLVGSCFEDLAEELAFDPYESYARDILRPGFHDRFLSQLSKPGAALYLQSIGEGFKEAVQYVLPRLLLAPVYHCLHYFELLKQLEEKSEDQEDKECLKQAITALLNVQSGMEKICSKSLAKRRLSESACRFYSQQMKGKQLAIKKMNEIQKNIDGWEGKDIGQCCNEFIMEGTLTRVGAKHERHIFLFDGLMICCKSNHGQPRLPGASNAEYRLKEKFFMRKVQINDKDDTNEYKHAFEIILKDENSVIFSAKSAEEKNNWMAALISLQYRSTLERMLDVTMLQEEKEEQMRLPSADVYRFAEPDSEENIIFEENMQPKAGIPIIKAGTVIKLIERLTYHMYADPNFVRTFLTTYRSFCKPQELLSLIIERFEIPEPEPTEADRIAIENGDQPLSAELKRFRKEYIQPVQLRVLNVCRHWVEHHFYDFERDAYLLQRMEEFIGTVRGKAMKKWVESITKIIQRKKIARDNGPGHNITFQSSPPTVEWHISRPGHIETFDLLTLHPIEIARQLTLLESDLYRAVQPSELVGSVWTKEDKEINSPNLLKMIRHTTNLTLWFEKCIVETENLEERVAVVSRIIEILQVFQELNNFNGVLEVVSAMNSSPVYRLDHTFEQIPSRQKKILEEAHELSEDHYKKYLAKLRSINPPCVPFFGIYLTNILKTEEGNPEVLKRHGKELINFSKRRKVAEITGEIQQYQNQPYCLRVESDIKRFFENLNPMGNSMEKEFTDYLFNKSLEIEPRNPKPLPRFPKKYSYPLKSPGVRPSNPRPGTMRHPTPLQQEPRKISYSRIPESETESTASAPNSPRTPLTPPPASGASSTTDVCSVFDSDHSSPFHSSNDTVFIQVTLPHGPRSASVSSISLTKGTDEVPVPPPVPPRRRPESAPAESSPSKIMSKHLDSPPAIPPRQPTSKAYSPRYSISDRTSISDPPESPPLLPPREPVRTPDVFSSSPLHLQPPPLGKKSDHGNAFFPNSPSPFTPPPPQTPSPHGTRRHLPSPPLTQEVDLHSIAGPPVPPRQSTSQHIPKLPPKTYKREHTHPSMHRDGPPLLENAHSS
Assay: SOS1 degradation assay (Western blot) in DLD-1 cells
Assay type: cell-based
Set-up: host or cells: NCI-H358, A-427, SW-620, DLD-1 (human cancer cell lines)
Settings: DLD-1 (KRAS G13D), 24 h
Procedure: Test Example 2: SOS1 Degradation Assay
The degradation of SOS1 by the compounds was investigated on KRAS G12C mutant human non-small cell lung cancer cells NCI-H358 (ATCC or Stem Cell Bank, Chinese Academy of Sciences), KRAS G12D mutant human lung cancer cells A-427 (ATCC), KRAS G12V mutant human colorectal adenocarcinoma cells SW-620 (ATCC), and KRAS G13D mutant human colorectal adenocarcinoma epithelial cells DLD-1 (ATCC). The specific procedures were as follows:
0.95 mL of cells were seeded into each well of a 24-well cell culture plate to achieve a cell density of 5×10^5 cells/well; the cell plate was incubated in an incubator at 37° C. with 5% CO2 overnight. Then 50 μL of the compound solution after dilution was added to each of the wells with the corresponding cells, so that the final concentration of the compound was in a range of 0.03-3000 nM. The final concentration of DMSO was 0.25%.
After dosing, the cell plate was incubated in an incubator at 37° C. with 5% CO2 for 24 h. The cell culture medium in the 24-well plate was removed, and the plate was washed twice with 1×PBS. 180 μL of RIPA (strong) lysis buffer (Beyotime, P0013B) supplemented with 1 mM phenylmethylsulfonyl fluoride, a protease inhibitor mixture (Beyotime, P1008), and a protease phosphatase inhibitor mixture (Beyotime, P1045) was added to lyse adherent NCI-H358 cells at the bottom of the cell culture plate. After the plate was left to stand on ice for 30 min, the protein lysate in each well was transferred to a 1.5 mL centrifuge tube and centrifuged at 15000 g for 20 min at 4° C. […] The concentration of total protein in the cell lysate supernatant was determined using the BCA Protein Quantification Kit (Tiangen, PA115-02). […]
The concentration of total protein in the cell lysate was determined by BCA. […] After the blocking, the PVDF membrane was incubated with an SOS1 primary antibody (Abcam, ab140621) at 4° C. overnight, washed with a TBST buffer (2.4 g of Tris, 8.8 g of NaCl, 1.5 mL of Tween 20, with pH adjusted to 7.4, with the volume brought to 1 L) for 30 min (10 min/time), incubated with a secondary antibody (Abcam, ab205718) at room temperature for 2 h, washed with a TBST buffer for 30 min (10 min/time), and finally incubated with Clarity Western ECL Substrate (BIO-RAD, 170-5061) for 5 min for luminescence and color development, and a chemiluminescence imaging system (Clinx, ChemiScope 6200 Touch) was used for color development and protein mapping. […] The gray correction value for each sample was calculated by the formula: gray correction value=(gray value of target protein/gray value of corresponding internal reference)×103. Then the degradation rate was calculated by comparing the gray correction value with the gray correction value of the control group. […]

Structure (SMILES) | DC50 [nM] | Dmax [%]
COc1cc2nc(C)nc(N[C@H](C)c3cc(-c4c(Cl)cccc4CN(C)C)cs3)c2cc1[C@H]1CC[C@H](C(=O)N2CCN(CC3CCC4(CC3)CCN(C(=O)c3ccc(Cl)c(N5CCC(=O)NC5=O)c3)CC4)CC2)CC1 [Example 1, 1-(2-chloro-5-(9-((4-((1R,4R)-4-(4-(((R)-1-(4-(2-chloro-6-((dimethylamino)methyl)phenyl)thien-2-yl)ethyl)amino)-7-methoxy-2-methylquinazolin-6-yl)cyclohexane-1-carbonyl)piperazin-1-yl)methyl)-3-azaspiro[5.5]undecane-3-carbonyl)phenyl)dihydropyrimidine-2,4(1H,3H)-dione] | ≤ 50 | 80 to 100
COc1cc2nc(C)nc(N[C@H](C)c3cc(-c4c(Cl)cccc4CN(C)C)cs3)c2cc1[C@H]1CC[C@H](C(=O)N2CCC(CCOCC3CCN(C(=O)c4ccc(Cl)c(N5CCC(=O)NC5=O)c4)CC3)CC2)CC1 [Example 5, 1-(2-chloro-5-(4-((2-(1-((1R,4R)-4-(4-(((R)-1-(4-(2-chloro-6-((dimethylamino)methyl)phenyl)thien-2-yl)ethyl)amino)-7-methoxy-2-methylquinazolin-6-yl)cyclohexane-1-carbonyl)piperidin-4-yl)ethoxy)methyl)piperidine-1-carbonyl)phenyl)dihydropyrimidine-2,4(1H,3H)-dione] | ≤ 50 | 80 to 100

From US20240261418A1, “SOS1 DEGRADING AGENT AND PREPARATION METHOD THEREFOR AND APPLICATION THEREOF” (SHANGHAI LEADINGTAC PHARMACEUTICAL CO. LTD., priority 2021, published 2024)
